“And” between values parts separate entries of the source, which are not always exact repeats. Equal values may be shown once. “Also recorded” adds a separate entry of the source. Where a name gives a salt, the structure may show the parent alone. Read-outs that look alike come from different tables or passages of the source.
Columns and labels:
PeaDOP2A receptor [1] = target: T1, PeaDOP2A receptor (Periplaneta americana, UniProt V6DNI7); test: cAMP production in HEK 293 cells stably expressing PeaDOP2A; type: cell-based; details: for effect on dopamine-induced increase in [cAMP]i (antagonist, in words): co-incubation with dopamine; for effect on [cAMP]i (agonist, in words): ligand 10 μM
T1 sequence (V6DNI7 entry or part of it): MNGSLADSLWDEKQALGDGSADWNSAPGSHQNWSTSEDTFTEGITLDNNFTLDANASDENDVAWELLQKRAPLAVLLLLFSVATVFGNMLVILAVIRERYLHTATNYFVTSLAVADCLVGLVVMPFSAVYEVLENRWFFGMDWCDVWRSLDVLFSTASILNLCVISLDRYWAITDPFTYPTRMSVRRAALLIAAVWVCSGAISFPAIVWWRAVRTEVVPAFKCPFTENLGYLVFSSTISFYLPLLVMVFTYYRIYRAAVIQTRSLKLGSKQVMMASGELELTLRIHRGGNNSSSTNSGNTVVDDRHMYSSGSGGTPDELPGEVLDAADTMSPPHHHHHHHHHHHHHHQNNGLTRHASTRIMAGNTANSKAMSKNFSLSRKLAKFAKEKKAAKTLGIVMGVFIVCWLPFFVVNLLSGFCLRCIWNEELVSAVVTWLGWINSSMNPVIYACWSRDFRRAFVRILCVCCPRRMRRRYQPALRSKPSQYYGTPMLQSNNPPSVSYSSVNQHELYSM
Method: Stably transfected cells were selected in the presence of the antibiotic G418 at 0.8 mg/mL. Isolated foci were propagated and analyzed for the expression of PeaDOP2A/B-HA by immunocytochemistry and Western blot analysis with a commercial anti-HA antibody (anti-HA high affinity; Roche, Penzberg, Germany).

PeaDOP2B receptor [2] = test: cAMP production in HEK 293 cells stably expressing PeaDOP2B; type: cell-based, Periplaneta americana; details: for change of intracellular cAMP level: biogenic amines 10 μM
Method: Approximately 8 μg pcPeadop2A/B-HA vector was separately introduced into exponentially growing HEK 293 cells (~4 × 10^5 cells per 5 cm Petri dish; Greiner, Frickenhausen, Germany) by a modified calcium phosphate method. Stably transfected cells were selected in the presence of the antibiotic G418 at 0.8 mg/mL. Isolated foci were propagated and analyzed for the expression of PeaDOP2A/B-HA by immunocytochemistry and Western blot analysis with a commercial anti-HA antibody (anti-HA high affinity; Roche, Penzberg, Germany).

[3] = target: D. melanogaster DOP2 receptor; details: read-out: EC50 for dopamine-induced cAMP increase; cited from earlier work
PeaDOP2A receptor [4] = target: T1, PeaDOP2A receptor; details: PeaDOP2A cell line
[5] = target: Bombyx mori DOP2 receptor; details: read-out: EC50 for dopamine-induced cAMP increase; cited from earlier work
PeaDOP2B receptor [6] = details: PeaDOP2B cell line
[7] = target: A. mellifera DOP2 receptor; details: read-out: EC50 for dopamine-induced cAMP increase; cited from earlier work
[8] = system: non-transfected HEK 293 cells; details: dopamine 1 nM to 10 μM
Method: Assays to determine the ability of PeaDOP2A/B-HA receptors to stimulate adenylyl cyclase activity were performed as described earlier [108]. PeaDOP2A/B-expressing cells were grown in minimal essential medium with GlutaMAX™ (Invitrogen, Karlsruhe, Germany), 10% (v/v) fetal bovine serum, 1% (v/v) non-essential amino acids, and antibiotics (all from Invitrogen, Karlsruhe, Germany). Cells were incubated with ligands for 30 min at 37 °C in the presence of the phosphodiesterase inhibitor isobutylmethylxanthine (IBMX; Sigma, Taufkirchen, Germany; final concentration 100 μM) and lysed by adding 0.5 mL ice-cold ethanol. After 1 h at 4 °C, the lysate was transferred to a reaction tube and lyophilized. The amount of cAMP produced was determined by using the TRK 432 cyclic AMP assay kit (GE Healthcare, Freiburg, Germany).

C. felis DOP2 receptor = details: read-out: EC50 for dopamine-induced cAMP increase; cited from earlier work
[9] = IC50 for blocking dopamine (300 nM)-induced cAMP increase, antagonist, in the presence of 300 nM dopamine, PeaDOP2A-expressing HEK 293 cells
[10] = log IC50, antagonist, log of molar IC50 (negative values), in the presence of 300 nM dopamine
[11] = agonist, HEK 293 cells expressing PeaDOP2A, 30 min, 37 °C, 100 μM IBMX, read-out: EC50 for increasing [cAMP]i
[12] = agonist, log of molar EC50 (negative values), PeaDOP2A-expressing HEK 293 cells
[13] = antagonist, in the presence of 300 nM dopamine, PeaDOP2A-expressing HEK 293 cells, read-out: IC50 for blocking dopamine (300 nM)-induced cAMP increase

For CN(C)CCCN1c2ccccc2Sc2ccc(Cl)cc21 [chlorpromazine, Chlorpromazine hydrochloride], the IC50 (PeaDOP2A receptor [1]; [9]) was 2.7 nM, the “effect on dopamine-induced increase in [cAMP]i (antagonist, in words)” value (from here on “effect on dopamine-induced increase”) (PeaDOP2A receptor [1]; PeaDOP2A-expressing cells) was “able to counteract the dopamine-induced increase in [cAMP]i fully; also recorded: abolished” and the IC50 (PeaDOP2A receptor [1]; [10]) was 2.7 nM.
In the case of NC1CCc2cc(O)c(O)cc2C1 (racemic) [6,7-ADTN, (±)-2-amino-6,7-dihydroxy-1,2,3,4-tetrahydronaphthalene], the “effect on [cAMP]i (agonist, in words)” value (PeaDOP2A receptor [1]; PeaDOP2A-expressing cells) is reported as “lead to an increase in [cAMP]i; also recorded: mimicked”, the EC50 (PeaDOP2A receptor [1]; [11]) is reported as 76.4 nM and the logEC50 (PeaDOP2A receptor [1]; [12]) is reported as −7.117.
In the case of Cl.Cl.OCCN1CCN(CCC=C2c3ccccc3Sc3ccc(C(F)(F)F)cc32)CC1 (mixture of isomers) [flupentixol, cis(Z)-flupentixol dihydrochloride], the “cAMP as percentage of the value with 300 nM dopamine (=100%)” value (PeaDOP2A receptor [1]; 10 μM antagonist in the presence of 300 nM dopamine, basal level […]) is reported as 7.0%, the “effect on dopamine-induced increase” value (PeaDOP2A receptor [1]; PeaDOP2A-expressing cells) is reported as “able to counteract the dopamine-induced increase in [cAMP]i fully” and the “effect on dopamine-induced increase” value (PeaDOP2A receptor [1]; PeaDOP2A-expressing cells, listed as cis(Z)-flupentixol) is reported as “abolished”. The “log IC50” value (PeaDOP2A receptor [1]; antagonist, log of molar IC50 (negative values), in the presence of 300 nM dopamine) was −8.189.
With CN1CCc2cc(Cl)c(O)cc2[C@@H](c2ccccc2)C1 [SCH 23390, R(+)-SCH 23390 hydrochloride] the “effect on dopamine-induced increase” value (PeaDOP2A receptor [1]; PeaDOP2A-expressing cells) was “able to counteract the dopamine-induced increase in [cAMP]i fully”, the IC50 (PeaDOP2A receptor [1]; [13]) was 1790 nM and the IC50 (PeaDOP2A receptor [1]; antagonist, log of molar IC50 (negative values), in the presence of 300 nM dopamine, read-out: log IC50 (converted)) was 1790 nM.
In the case of CN1CCc2cccc3c2[C@H]1Cc1ccc(O)c(O)c1-3 [apomorphine, apomorphine hydrochloride hemihydrate], the “effect on [cAMP]i (agonist, in words)” value (PeaDOP2A receptor [1]; PeaDOP2A-expressing cells) is reported as “lead to an increase in [cAMP]i”.
Compound OCCN1CCN(CC/C=C2/c3ccccc3Sc3ccc(C(F)(F)F)cc32)CC1 [flupentixol, cis(Z)-flupentixol dihydrochloride] has an IC50 (PeaDOP2A receptor [1]; [13]) of 6.5 nM.
With CC(C)C[C@H]1C(=O)N2CCC[C@H]2[C@]2(O)O[C@](NC(=O)[C@@H]3C=C4c5cccc6[nH]c(Br)c(c56)C[C@H]4N(C)C3)(C(C)C)C(=O)N12 [bromocriptine, bromocriptine mesylate] the “effect on [cAMP]i (agonist, in words)” value (PeaDOP2A receptor [1]; PeaDOP2A-expressing cells) was “fails to increase [cAMP]i”.
In the case of Oc1cc2c(cc1O)[C@@H](c1ccccc1)CNCC2 [SKF 38393, R(+)-SKF 38393 hydrochloride], the “effect on [cAMP]i (agonist, in words)” value (PeaDOP2A receptor [1]; PeaDOP2A-expressing cells) is reported as “does not show any effect”.
For CC(C)(C)[C@]1(O)CCN2C[C@H]3c4ccccc4CCc4cccc(c43)[C@@H]2C1 [butaclamol, S(+)-butaclamol hydrochloride], the IC50 (PeaDOP2A receptor [1]; [9]) was 326 nM, the “effect on dopamine-induced increase” value (PeaDOP2A receptor [1]; PeaDOP2A-expressing cells) was “able to counteract the dopamine-induced increase in [cAMP]i fully” and the IC50 (PeaDOP2A receptor [1]; [10]) was 326 nM.
For C=CCN1CCc2c(cc(O)c(O)c2Cl)C(c2ccccc2)C1 (racemic) [6-chloro-APB, (±)-6-Chloro-7,8-dihydroxy-3-allyl-1-phenyl-2,3,4,5-tetrahydro-1H-3-benzazepine], the “effect on [cAMP]i (agonist, in words)” value (PeaDOP2A receptor [1]; PeaDOP2A-expressing cells) was “lead to an increase in [cAMP]i; also recorded: mimicked”, the EC50 (PeaDOP2A receptor [1]; [11]) was 382 nM and the logEC50 (PeaDOP2A receptor [1]; [12]) was −6.418.
With NCCc1ccc(O)cc1 [tyramine, tyramine hydrochloride] the “change of intracellular cAMP level” value (PeaDOP2B receptor [2]) was “None of the biogenic amines induced a change” and the “effect on [cAMP]i (agonist, in words)” value (PeaDOP2A receptor [1]; PeaDOP2A-expressing cells) was “no effect”.
For NCC(O)c1ccc(O)cc1 (racemic) [octopamine, (±)-octopamine hydrochloride], the “change of intracellular cAMP level” value (PeaDOP2B receptor [2]) was “None of the biogenic amines induced a change” and the “effect on [cAMP]i (agonist, in words)” value (PeaDOP2A receptor [1]; PeaDOP2A-expressing cells) was “no effect”.
In the case of NCCc1ccc(O)c(O)c1 [dopamine, dopamine hydrochloride], the “change of intracellular cAMP level” value (PeaDOP2B receptor [2]) is listed as “None of the biogenic amines induced a change”, the “effect on [cAMP]i, dose-response” value (PeaDOP2B receptor [2]; dopamine 1 nM to 10 μM) is listed as “None of the dopamine concentrations showed an effect; also recorded: does not affect [cAMP]i” and the EC50 [3] is listed as 350 nM. For the same compound, the cAMP production (PeaDOP2A receptor [1]; 10 μM ligand, PeaDOP2A-expressing cells) was 300 pmol cAMP/mg protein, the EC50 (PeaDOP2A receptor [1]; EC50 for increasing [cAMP]i, agonist, HEK 293 cells expressing PeaDOP2A, 30 min, 37 °C, 100 μM IBMX) was 160 nM and 163 nM and the “concentration for maximal stimulation of cAMP synthesis” value (PeaDOP2A receptor [1]; PeaDOP2A-expressing cells, dose range 1 nM to 10 μM) was no less than 1 µM. The “effect on [cAMP]i (agonist, in words)” value (PeaDOP2A receptor [1]; PeaDOP2A-expressing cells) was “leads to an increase in [cAMP]i”, the EC50 (PeaDOP2A receptor [1]; logEC50, agonist, log of molar EC50 (negative values), PeaDOP2A-expressing HEK 293 cells) was 166 nM and 163 nM and the “change in [Ca2+]i upon dopamine incubation” value (PeaDOP2A receptor [4]) was “Neither PeaDOP2 receptor cause changes in [Ca^2+]i”. For the same compound, the EC50 [5] was 1300 nM, the “change in [Ca2+]i upon dopamine incubation” value (PeaDOP2B receptor [6]) was “Neither PeaDOP2 receptor cause changes in [Ca^2+]i” and the EC50 [7] was 2200 nM. The “effect on [cAMP]i, dose-response” value [8] was “None of the dopamine concentrations showed an effect” and the EC50 (C. felis DOP2 receptor) was 2400 nM.
For NCCc1c[nH]cn1 [histamine, histamine dihydrochloride], the “change of intracellular cAMP level” value (PeaDOP2B receptor [2]) was “None of the biogenic amines induced a change” and the “effect on [cAMP]i (agonist, in words)” value (PeaDOP2A receptor [1]; PeaDOP2A-expressing cells) was “no effect”.
In the case of Cl.NCCc1c[nH]c2ccc(O)cc12 [serotonin, 5-hydroxytryptamine hydrochloride], the “change of intracellular cAMP level” value (PeaDOP2B receptor [2]) is reported as “None of the biogenic amines induced a change” and the “effect on [cAMP]i (agonist, in words)” value (PeaDOP2A receptor [1]; PeaDOP2A-expressing cells) is reported as “no effect”.

From publication PMC3907829, “Characterization of an Invertebrate-Type Dopamine Receptor of the American Cockroach, Periplaneta americana” (International Journal of Molecular Sciences, 2014)
